Laboratory results: US20120052573A1, “ONE-POT SYNTHESIS OF LINEAR-LIKE POLYETHYLENIMINE FOR INTRACELLULAR IMAGING AND NUCLEIC ACID DELIVERY” (NATIONAL HEALTH RESEARCH INSTITUTES, priority 2010, published 2012)

Test system: H460 human lung cancer cells
Assay: Flow cytometry cell cycle arrest analysis after cyclin B1 siRNA delivery
Assay type: cell-based
Conditions: [siRNA]=200 nM, [compound b]=100 ng/mL, 24 h, no fetal bovine serum, n=3
Procedure: Flow cytometry for cell cycle analysis. Human lung cancer cells, H460, at 2×10^5 cells/mL were treated with cyclin B1siRNA alone (200 nM) or compound b/siRNA complex ([compound b]=100 ng/mL, [cyclin B1 siRNA]=200 nM) in RPMI 1640 medium for […] at 37° C., 5% CO2(g). After the treatments, cells were washed twice in PBS buffer solution and fixed in cold. PBS solution containing 75% ethanol. After washing with PBS and centrifugation at 1,500 rpm for 5 min, cells were stained with propidium iodide (PI) and analyzed by FACS Calibur (BD PharMingen, N.J., USA) using WinMDI 2.9 analysis software. The cyclic B1 siRNA sequence is 5′-[…]-3 (SEQ ID NO: 1) for sense and 5′-[…]-3 (SEQ ID NO: 2) (NCBI accession number of cyclin B1: NM031966) for anti-sense.
PEI has a high cationic density and can associate with nucleic acids such as siRNA to form a cationic polyplex. The efficiency of the PEI according to the invention as a delivery vehicle for siRNA was examined. Compound b (LPEI) was used to associate with a siRNA for silencing Cyclin B1, which is an indispensable protein for cell mitosis. […] The population proportions of cells were analyzed and summarized in histogram profile (FIG. 4E). […]
H460 lung cancer cells were treated with compound b/siRNA complex for 24 h, and the cell cycle distribution was examined by flow cytometry. […] FL2A: fluorescence pulse area. *p<0.05.

siRNA alone: cyclin B1 siRNA, sense SEQ ID NO: 1, anti-sense SEQ ID NO: 2 (sense ACAUGAGAGCCAUCCUAAUUGTT; antisense CAAUUAGGAUGGCUCUCAUGUTT; chemistry not given here)
population in G2/M phase of the cell cycle, increase compared with control: 5.52%±0.406
